Literature values in patent publication US20210290432A1, “KIT FOR PRODUCING KERATOCONJUNCTIVAL COVER SHEET AND METHOD FOR PRODUCING KERATOCONJUNCTIVAL COVER SHEET” (OSAKA UNIVERSITY, priority 2016, published 2021).

solubility in water: poorly soluble in water
Structure (SMILES): O=C(NC(Cc1cc(=O)[nH]c2ccccc12)C(=O)O)c1ccc(Cl)cc1 (stereo not shown) [Rebamipide, rebamipide]
